# Measurements as given in patent US7855259B2, “Method for producing melt-processable fluororesin” (Asahi Glass Company, Limited, priority 2005, dated 2010).
# Test: Measurement of 1-octanol/water partition coefficient (LogPOW) by HPLC, OECD Test Guideline 117
# Format: physicochemical
# Conditions: for LogPOW: 1-octanol/water partition coefficient calculated from HPLC elution time, OECD Test Guideline 117, ODS column, acetonitrile/0.6 mass % HClO4 aq. 1/1, 40° C.; for bioaccumulation potential (indicated by LogPOW value as compared to APFO): judged from LogPOW compared to APFO
# Method: In accordance with OECD Test Guideline 117, 1-octanol/water partition coefficient (LogPOW) of a fluorinated emulsifier was measured by using HPLC (high performance liquid chromatography).
# Conditions for the measurement were as follows: column: TOSOH ODS-120T column (φ 4.6 mm×250 mm), eluent: acetonitrile/0.6 mass % of HClO4 aqueous solution=1/1 (vol/vol %), flow rate: […], sample amount: 300 μL, column temperature: 40° C., and detection light: UV 210 nm (WO2005-42593).
# HPLC was carried out on standard substances (heptanoic acid, octanoic acid, nonanoic acid and decanoic acid) having known 1-octanol/water partition coefficients, and a calibration curve was prepared from the respective elution times and octanol/water partition coefficients of the respective standard substances. Based on this calibration curve, a value of partition coefficient (LogPOW) between 1-octanol and water was calculated from the elution time by HPLC of the fluorinated emulsifier.
# Further, in general, in order to judge whether or not a chemical substance is apt to be accumulated in a living organism, a testing method for measurement of a partition coefficient (LogPOW) between 1-octanol and water, is stipulated. As the testing method, in addition to “Partition Coefficient (1-octanol/water) Shake Flask Method” as stipulated in OECD test guideline 107 and in Japanese Industrial Standards Z 7260-107 (2000), a HPLC method (high-performance liquid chromatography) as stipulated and published in OECD Test Guideline 117, is used. A compound having a large partition coefficient value has a large tendency for bioaccumulation, and a compound having a small value means a small tendency for bioaccumulation. In a case where the LogPOW value is less than 3.5, it is considered proper to judge that it is not a high-concentration, and bioaccumulation is also considered to be small.
SMILES,LogPOW,bioaccumulation potential (indicated by LogPOW value as compared to APFO)
"N.O=C(O)C(F)(F)C(F)(F)C(F)(F)C(F)(F)C(F)(F)C(F)(F)C(F)(F)F [CF3(CF2)6COONH4, ammonium perfluorooctanoate]",3.67,
N.O=C(O)C(F)(F)OC(F)(F)C(F)(F)OC(F)(F)C(F)(F)F [CF3CF2OCF2CF2OCF2COONH4],3.13,low
N.O=C(O)C(F)(OC(F)(F)C(F)(OC(F)(F)C(F)(F)F)C(F)(F)F)C(F)(F)F (centres unmarked) [CF3CF2OCF(CF3)CF2OCF(CF3)COONH4],4.03,high
